US6930103B2, “Use of vasopeptidase inhibitors in the treatment of metabolic diseases, nephropathy and advanced glycation end-product associated diseases” (Aventis Pharma Deutschland GmbH, priority 2002, dated 2005)

Key:
Type in all cases: in vivo, rat
[1] = tested on: fat ZDF rats; assay: Histological examination of kidneys of ZDF rats after 6 months treatment; conditions: in words
Method: The protein and creatinine excretion in the urine of male Zucker Diabetic Fatty (ZDF) Rats (ZDF Gmi fa/fa) and heterozygous control animals (ZDF Gmi −/+) of 10, 17, 27 and 37 weeks age was determined. In further groups, diabetic rats were chronically given either ramipril (1 mg/kg/day, in drinking water) or a compound of formula (II-B) (30 mg/kg/day, in food) over a period from 10 to 37 weeks. The animals were sacrificied after 37 weeks, and their kidneys examined histologically.
In the attached tables a summary of the findings on the kidneys after a treatment period of 6 months is listed.

[2] = tested on: ZDF rats; assay: RP-HPLC analysis of CML in kidney and heart of ZDF rats; conditions: for mean CML conc.: RP-HPLC, ZDF Placebo = 100
Method: (§1) Kidney AGE values were determined by Dot blot analysis (Stracke et al., Exp. Clin. Endocrinol. Diabets 2002, 109, 330-336) and Reversed-phase high performance liquid chromatography or RP-HPLC (Drusch et al., Food Chem. 1999, 65, 547-553).
[…] Two animals of each group were analyzed. Grinding of the kidney and heart was performed in liquid nitrogen using a freezer mill (Freezer 6750, C3 Analysetechnik GmbH). Hydrolysis of the organ samples was performed with 6 M hydrochloric acid (HCl) at 110° C. for 12 hours. Sample treatment with o-phthaldialdehyde (OPA) and RP-HPLC was performed as described in Drusch et al., Food Chem. 1999, 65, 547-553.

[3] = tested on: Zucker diabetic fatty rats; assay: HbA1c analysis in ZDF rats; conditions: for HbA1c, mean: ZDF rats
Method: (§2) Blood glucose and HbA1c was measured in 10- and 17-week-old male Zucker diabetic fatty rats (Genetic Model Inc.), control rats (Genetic Model Inc.) and male ZDF rats treated for seven weeks with 30 mg/kg/d of compound (II-B), 35 mg/kg/d of compound (III-B) and 1 mg/kg/d ramipril. Fifteen animals were analyzed in each group.
To obtain blood samples for HbA1c determination, disposable capillary tubes were used. HbA1c values were obtained from hemolyzed whole blood samples with a turbidimetric inhibition immunoassay (Tina-quant, Roche Diagnostics GmbH) and hemoglobin concentrations were determined in a second channel on an automated clinical chemistry analyzer (Boehringer Mannheim/Hitachi 912). HbA1c concentration in percent were calculated from HbA1c to total hemoglobin.

[4] = tested on: ZDF rats; assay: Dot blot analysis of kidney AGE subtypes (CML, CEL, pentosidine) in ZDF rats
Method: as §1
Kidney-samples for the dot blot analysis were obtained from 17-week-old male ZDF rats, control rats and ZDF rats treated for seven weeks with 30 mg/kg/d of compound (II-B) and 35 mg/kg/d of compound (III-B). Three animals of each group were sacrificed, the kidneys removed and immediately frozen in liquid nitrogen. Grinding of the kidneys was performed in liquid nitrogen using a freezer mill (Freezer 6750, C3 Analysetechnik GmbH). Kidney sample (10 mg) was dissolved in 1 ml phosphate buffered saline (PBS containing 0.5 g/l Tween 20, 0.5 mM PMSF, […]). The solution was treated two times for five seconds with an ultrasonic cell disrupter (45% power, Bandolin Sonoplus HD 2070), centrifuged for 20 minutes at 4000 rpm and the supernatant was used for dot blot analysis. The nitrocellulose membrane was placed in the dot blot apparatus and washed twice with Tris Buffered Saline (TBS), 100 μl TBS/well. For each sample, 10 μg protein (protein concentration of the samples were determined with the DC Protein Assay, Bio Rad) was diluted in 100 μl TBS and loaded on to the nitrocellulose membrane (Amersham). The membrane was incubated over night in TBS with Tween 20 (TBST; 20 mM Tris, 137 mM NaCl, 0.05% v/v Tween 20) with 5% non-fat dry milk at 4° C. and incubated for 1 hour at room temperature using the following antibody concentration: anti-CML 011 (Biologo) 0.25 μg/ml, anti-CEL (Biologo) 0.25 μg/ml and anti-pentosidine 012 (Biologo) 0.25 μg/ml. After extensive washing in TBST with 5% non-fat dry milk, membranes were exposed to […] anti-mouse IgG antibodies (Dianova) for one hour at room temperature. Membranes were washed again and exposed to the enhanced chemofluorescence detection system (Amersham) according to manufacturer's instructions. Relative fluorescence was determined with the Fluor-Imager 595 (Molecular Dynamics) and quantified using the Image-Quant software. Results were expressed in relative fluorescence (rf) times 10^5 (rf*10^5).

[5] = tested on: Zucker diabetic fatty rats; assay: Blood glucose analysis in ZDF rats; conditions: for blood glucose, mean: ZDF rats
Method: as §2
Blood samples for glucose determination were obtained from ZDF rats using standard sampling tubes. Within 30 minutes of collection, samples were separated from the cells by centrifugation. Quantitative determination of blood glucose in serum was performed with an enzymatic in vitro test from Roche Diagnostics GmbH (Gluco-quant, Roche Diagnostics GmbH) using the automated clinical chemistry analyzer Boehringer Mannheim/Hitachi 912.

[6] = age 10 weeks (start of treatment)
[7] = age 17 weeks (treated for seven weeks)
[8] = 17-week-old ZDF rats treated for seven weeks, dot blot

For `CC(=O)S[C@@H](Cc1ccccc1)C(=O)N[C@H]1Cc2ccccc2[C@H]2CCC[C@@H](C(=O)O)N2C1=O` [cpd. (III-B)], the “Incidence of glomerulosclerosis or associated degenerative lesions compared to fat ZDF controls” value [1] was “no differences”, the “mean CML conc.” value ([2]; hearts of 17-week-old ZDF rats) was 66% and the “mean CML conc.” value ([2]; kidneys of 17-week-old ZDF rats) was 60%. For the same molecule, the “mean CML conc.” value ([2]; kidneys of 37-week-old ZDF rats) was 93%, the “CML concentration in the heart of 17-week-old ZDF rats” value ([2]; in words) was “also reduces” and the “CML concentration in the kidneys of 17-week-old ZDF rats” value ([2]; in words) was “also reduces”. The “HbA1c values compared to the untreated ZDF rats” value ([3]; 17-week-old ZDF rats, in words) was “significantly lower”, the “HbA1c, mean” value [3, 6] was 5.60% and the “HbA1c, mean” value [3, 7] was 7.19%. The “HbA1c value compared with the ACE inhibitor ramipril” value ([3]; in words) was “lower values”, the “AGE-subtype CEL in the kidneys (anti-CEL), mean” value [4, 8] was 52.60 rf * 10^5 and the “AGE-subtype CML in the kidneys (anti-CML 011), mean” value [4, 8] was 38.67 rf * 10^5. For the same molecule, the “AGE-subtype pentosidine in the kidneys (anti-pentosidine 012), mean” value [4, 8] was 40.70 rf * 10^5, the “Kidney AGE (Nε-(carboxymethyl)lysine or CML) values” ([4]; diabetic rats, summary in words) was “lowers the CML value significantly” and the “AGE values for subtype CEL compared to untreated ZDF rats” value ([4]; kidney, dot blot, in words) was “Lower AGE values”. For the same molecule, the “AGE values for subtype pentosidine compared to untreated ZDF rats” value ([4]; kidney, dot blot, in words) was “Lower AGE values”, the “Blood glucose concentration compared to the untreated ZDF rats” value ([5]; 17-week-old ZDF rats, in words) was “significantly lower” and the “blood glucose, mean” value [5, 6] was 10.37 mM. For the same molecule, the “blood glucose, mean” value [5, 7] was 19.74 mM and the “Blood glucose value compared with the ACE inhibitor ramipril” value ([5]; in words) was “lower values”.
